According to patent US20020137154A1, “Methods for improving cell growth and alcohol production during fermentation” (priority 2000, published 2002):

Assays:
[1] = test system: recombinant Escherichia coli KO11; assay: Batch fermentation of E. coli KO11 in 1% CSL medium and xylose with nutrient additives: ethanol production and cell growth; assay type: cell-based; conditions: for activity at 2000 µg/mL: Escherichia coli
Procedure: (§1) Two types of media were tested: 1% CSL and Luria broth (LB). Each contained 97 g of either xylose or glucose per liter. Luria Broth consists of, per liter: 10 g Difco® Tryptone, 5 g Difco® Yeast Extract and 5 g NaCl. The 1% CSL medium consists of Corn Steep Liquor (1% w/v) plus mineral salts (mineral salts per liter: 1 g of KH2PO4. 0.5 g of K2HPO4, 3.1 g of (NH4)2SO4, 0.4 g of MgCl2·6H2), and 20 mg FeCl3·6H2O).
(§2) Luria Broth was prepared by autoclaving a 2× nutrient stock containing, per liter: 20 g Difco® Tryptone, 10 g Difo® Yeast Extract, and 10 g NaCl. Sugars (xylose or glucose) were autoclaved separately. A 1% CSL medium was prepared as follows: Commercial Corn Steep Liquor (CSL; 50% dry weight/50% water) was diluted with tap water to make a 20X stock containing 100 g dry weight of Corn Steep Liquor/L and was adjusted to pH 7.2 with NaOH (50%). After sterilization by autoclaving, the 20X CSL stock was clarified by centrifugation at 5000×g for 10 minutes. Magnesium was added as a 100× stock solution (40 g/L MgCl2·6H2O). Iron was added as a 1000× stock solution made by dissolving 20 g FeCl3·6H2O in 175 mL of HCl and adjusting to 1 L with sterile water. Nitrogen, sulfur and phosphorus were added using a 20× stock solution containing the following (per liter): 20 g of KH2PO4, 10 g of K2HPO4 and 62 g of (NH4)2SO4. Stock solutions containing minerals were sterilized separately by autoclaving. Final media was prepared by adding 750 mL of water to 1 L bottle containing 100 g of xylose or glucose.
Inocula were grown in same media used for fermentation and were prepared as follows. Three colonies from a fresh plate were used to inoculate seed cultures: 250-mL flask containing 100 mL medium. These cultures were grown with agitation (120 rpm) for 12-16 hours at 35° C. to a final OD550nm of approximately 2.0-2.5. Cells were harvested by centrifugation at 5000×g for 5 minutes, and resuspended in fresh media to an OD550nm of 0.1. The resulting suspension was distributed into 500-mL beakers containing 345 ml each of fermentation medium. Acetaldehyde was added as indicated. Batch fermentations (35° C., 100 rpm) were maintained at pH 6.5 by the automatic addition of 2N KOH. Cell mass, ethanol, and base addition (2N KOH) were recorded during 96 hours of incubation. […]
(§3) Additives (e.g., as listed in Table 1) were dissolved in 5 mL di-H2O. Solutions with pH lower than 5 were neutralized to pH 6.5 with 2N KOH. Nutritional supplements were then filter-sterilized (0.45 μm filter disk) directly into the fermentation vessel containing the culture. The final concentration of all additives in the culture medium was 2 g/L unless otherwise indicated.
(§4) Cell mass was estimated by measuring OD550nm using Baush & Lomb® Spectronic 70 spectrophotometer. […] Ethanol was measured by gas chromatography using a Varian® 3400 CX gas chromatograph with 1-propanol as an internal standard.
(§5) Tables 1, 3, and 5 show time to completion of fermentation, ethanol production, and volumetric productivity of the fermentation for all concentrations of the compound and the control. Maximum ethanol production is shown in grams/liter (g/L). The ethanol yield is shown in grams of ethanol/grams of added sugar. Maximum volumetric productivity is shown in grams ethanol/(liter)(hour). The average productivity is calculated form the start of fermentation to the completion of fermentation is grams ethanol/(liter)hour).
Tables 2, 4, and 6 show the initial growth of the cells (OD taken after the first 24 hours of fermentation) and the maximum cell density (the time which culture reaches the maximum OD value). […]

[2] = test system: recombinant Escherichia coli KO11; assay: Batch fermentation of E. coli KO11 in 1% CSL medium and glucose with nutrient additives: ethanol production and cell growth; assay type: cell-based; conditions: for activity at 2000 µg/mL: Escherichia coli
Procedure: as §1, §2
Inocula were grown in same media used for fermentation and were prepared as follows. Three colonies from a fresh plate were used to inoculate seed cultures: 250-mL flask containing 100 mL medium. These cultures were grown with agitation (120 rpm) for 12-16 hours at 35° C. to a final OD550nm of approximately 2.0-2.5. Cells were harvested by centrifugation at 5000×g for 5 minutes, and resuspended in fresh media to an OD550nm of 0.1. The resulting suspension was distributed into 500-mL beakers containing 345 ml each of fermentation medium. Acetaldehyde was added as indicated. Batch fermentations (35° C., 100 rpm) were maintained at pH 6.5 by the automatic addition of 2N KOH. Cell mass, ethanol, and base addition (2N KOH) were recorded during 96 hours of incubation.
Equivalent amounts of distilled water were added instead of the acetaldehyde in control experiments.
as §3, §4, §5
Tables 2, 4, and 6 show the initial growth of the cells (OD taken after the first 24 hours of fermentation) and the maximum cell density (the time which culture reaches the maximum OD value).
Acetaldehyde was added to the fermentation medium at five different concentrations and time points. […] Where two additions are indicated, the first volume was added at the start of fermentation and the second was added after 8 hours of fermentation.

[3] = 1% CSL+xylose, additive 2 g/L unless indicated
[4] = 24 h, read-out: Initial Growth (OD @ 24 h) % Control, 1% CSL+xylose, additive 2 g/L unless indicated
[5] = read-out: Ethanol Production Maximum % Control, 1% CSL+xylose, additive 2 g/L unless indicated
[6] = read-out: Maximum Cell Density % Control, 1% CSL+xylose, additive 2 g/L unless indicated
[7] = read-out: Volumetric Productivity Average % Control, 1% CSL+xylose, additive 2 g/L unless indicated
[8] = read-out: Volumetric Productivity Maximum % Control, 1% CSL+xylose, additive 2 g/L unless indicated
[9] = 1% CSL+glucose, additive 2 g/L unless indicated
[10] = 24 h, read-out: Initial Growth (OD @ 24 h) % Control, 1% CSL+glucose, additive 2 g/L unless indicated
[11] = read-out: Ethanol Production Maximum % Control, 1% CSL+glucose, additive 2 g/L unless indicated
[12] = read-out: Maximum Cell Density % Control, 1% CSL+glucose, additive 2 g/L unless indicated
[13] = read-out: Volumetric Productivity Average % Control, 1% CSL+glucose, additive 2 g/L unless indicated
[14] = read-out: Volumetric Productivity Maximum % Control, 1% CSL+glucose, additive 2 g/L unless indicated

| Compound | Ethanol Production Maximum [1, 3] [g/L] | Ethanol yield [1, 3] | Initial Growth (OD @ 24 h) OD [1, 3] [OD] | Maximum Cell Density OD [1, 3] [OD] | Maximum Cell Density Time [1, 3] [h] | Volumetric Productivity Average [1, 3] | Volumetric Productivity Maximum [1, 3] | activity at 2000 µg/mL [1, 4] [%] | activity at 2000 µg/mL [1, 5] [%] | activity at 2000 µg/mL [1, 6] [%] | activity at 2000 µg/mL [1, 7] [%] | activity at 2000 µg/mL [1, 8] [%] | Ethanol Production Maximum [2, 9] [g/L] | Ethanol yield [2, 9] | Initial Growth (OD @ 24 h) OD [2, 9] [OD] | Maximum Cell Density OD [2, 9] [OD] | Volumetric Productivity Average [2, 9] | Volumetric Productivity Maximum [2, 9] | activity at 2000 µg/mL [2, 10] [%] | activity at 2000 µg/mL [2, 11] [%] | other results |
| --- | --- | --- | --- | --- | --- | --- | --- | --- | --- | --- | --- | --- | --- | --- | --- | --- | --- | --- | --- | --- | --- |
| C[C@H](N)C(=O)O [Alanine, alanine] | 21.66 | 0.223 grams of ethanol/grams of added sugar | 1.66 | 1.73 | 48 | 0.226 grams ethanol/(liter)(hour) | 0.240 grams ethanol/(liter)(hour) | 81.3 | 72 | 68.8 | 72 | 65.2 | 34.37 | 0.354 grams of ethanol/grams of added sugar | 2.08 | 2.68 | 0.358 grams ethanol/(liter)(hour) | 0.468 grams ethanol/(liter)(hour) | 78 | 92.9 | activity at 2000 µg/mL [2, 12]: 99.8%; activity at 2000 µg/mL [2, 13]: 92.9%; activity at 2000 µg/mL [2, 14]: 91.1% |
| N[C@@H](CC(=O)O)C(=O)O [Aspartate, aspartate] | 27.90 | 0.287 grams of ethanol/grams of added sugar | 1.76 | 2.45 | 72 | 0.291 grams ethanol/(liter)(hour) | 0.304 grams ethanol/(liter)(hour) | 86.3 | 92.7 | 97.2 | 92.7 | 82.4 | 41.79 | 0.430 grams of ethanol/grams of added sugar | 2.86 | 3.79 | 0.580 grams ethanol/(liter)(hour) | 0.759 grams ethanol/(liter)(hour) | 107 | 113 | activity at 2000 µg/mL [2, 12]: 141%; activity at 2000 µg/mL [2, 13]: 151%; activity at 2000 µg/mL [2, 14]: 148% |
| O=C(O)CC(O)(CC(=O)O)C(=O)O [Citrate] | 28.80 | 0.296 grams of ethanol/grams of added sugar | 2.12 | 2.47 | 96 | 0.300 grams ethanol/(liter)(hour) | 0.339 grams ethanol/(liter)(hour) | 104 | 95.7 | 98.1 | 95.7 | 92 | 32.87 | 0.338 grams of ethanol/grams of added sugar | 2.43 | 2.58 | 0.342 grams ethanol/(liter)(hour) | 0.502 grams ethanol/(liter)(hour) | 91 | 88.9 | activity at 2000 µg/mL [2, 12]: 96%; activity at 2000 µg/mL [2, 13]: 88.9%; activity at 2000 µg/mL [2, 14]: 97.8% |
| O=C(O)/C=C/C(=O)O [Fumarate] | 28.49 | 0.293 grams of ethanol/grams of added sugar | 1.86 | 2.60 | 96 | 0.297 grams ethanol/(liter)(hour) | 0.345 grams ethanol/(liter)(hour) | – | – | – | – | – | 32.92 | 0.339 grams of ethanol/grams of added sugar | 2.67 | 3.17 | 0.343 grams ethanol/(liter)(hour) | 0.559 grams ethanol/(liter)(hour) | – | – | Ethanol Production Maximum % Control [1, 3]: 94.73%; Initial Growth (OD @ 24 h) % Control [1, 3]: 91.16%; Maximum Cell Density % Control [1, 3]: 103.15%; Time to completion [1, 3]: >96 h; Volumetric Productivity Average % Control [1, 3]: 94.73%; Volumetric Productivity Maximum % Control [1, 3]: 93.682%; Ethanol Production Maximum % Control [2, 9]: 88.98%; Initial Growth (OD @ 24 h) % Control [2, 9]: 99.76%; Maximum Cell Density % Control [2, 9]: 117.92%; Maximum Cell Density Time [2, 9]: 72 h; Time to completion [2, 9]: 96 h; Volumetric Productivity Average % Control [2, 9]: 88.98%; Volumetric Productivity Maximum % Control [2, 9]: 108.88% |
| O=C(O)CC(C(=O)O)C(O)C(=O)O (stereo not shown) [Isocitrate] | 33.02 | 0.340 grams of ethanol/grams of added sugar | – | 3.01 | 96 | 0.344 grams ethanol/(liter)(hour) | 0.435 grams ethanol/(liter)(hour) | – | – | – | – | – | 33.95 | 0.349 grams of ethanol/grams of added sugar | – | – | 0.471 grams ethanol/(liter)(hour) | 0.588 grams ethanol/(liter)(hour) | – | – | activity at 2000 µg/mL ([1]; read-out: Maximum Cell Density % Control): 119%; activity at 2000 µg/mL ([1]; read-out: Volumetric Productivity Maximum % Control): 118%; activity at 2000 µg/mL ([2]; read-out: Ethanol Production Maximum % Control): 91.8%; activity at 2000 µg/mL ([2]; read-out: Volumetric Productivity Average % Control): 122% |
